{
  "source": "patent US20250101436A1",
  "about": "“APTAMERS AND SMALL MOLECULE LIGANDS” (MeiraGTx UK II Limited, priority 2021, published 2025)",
  "key": {"12C6-1 riboswitch": {"test_system": "12C6-1 riboswitch", "test": "Firefly luciferase assay, Luci-12C6-1 riboswitch construct in transfected HEK 293 cells", "type": "cell-based, human", "details": "for luciferase expression response: HEK 293 cells transfected with Luci-12C6-1; for activation of 12C6-1 and derivative riboswitches in regulating Luciferase expression (FIG. 4d): HEK 293 cells", "excerpt": "Riboswitch construct: Aptamers were synthesized by Integrated DNA Technologies, Inc. The synthesized aptamer sequence, here referred to as aptamer sequence 12C6-1, contains a putative TPP aptamer sequence (AP008955.1/944373-944459; CP030117.1/954080-954166; CP023474.1/977011-977097) with C at 5′ end and a complementary G at 3′ end flanking the putative TPP aptamer sequence: […] […] (SEQ ID NO: 1). Golden Gate cloning strategy (New England Biolabs, NEB) was used to clone the synthesized aptamer sequences into an intron-exon-intron cassette to replace the guanine aptamer in the G17 riboswitch cassette (see SEQ ID NO: 15 recited in WO 2016/126747, which is incorporated herein in its entirety) to generate riboswitch construct Luci-12C6-1."}, "[1]": {"test_system": "AAV8.mEpo.12G6 mEpo expression", "test": "Serum mouse Epo ELISA in mice injected in the muscle with AAV8.mEpo.12G6, oral Comp. 004", "type": "in vivo", "details": "1×10^11 GC AAV8 in the muscle, 30 mg/kg oral", "protocol": "For regulated mouse erythropoietin (mEpo) study, each female Balb/c mouse was injected in the quadricep muscle with 1.0×10^11, 5×10^10, 1×10^10, or 5×10^9 GC of AAV8 vectors containing riboswitch N5-12G6 regulated mEpo gene (AAV8.mEpo.12G6). 5 weeks post AAV injection, mice were treated with Comp. 004 formulated in 0.5% methylcellulose (MC): 0.25% Tween® 80 in deionized (DI) water via oral gavage. 16 hours post oral dosing, mice were subjected to submandibular blood collection. 10 fold diluted serum was used to measure mouse serum Epo using ELISA (Invitrogen)."}, "N5-12E5 riboswitch": {"test_system": "N5-12E5 riboswitch", "test": "Firefly luciferase assay, N5-12E5 riboswitch in HEK 293 cells", "type": "cell-based, human", "details": "N5-12E5, 0.1 μM Comp. 004", "description": "(§4) Transfection: 3.5×10^4 human embryonic kidney (HEK) 293 cells were plated in a 96-well flat bottom plate the day before transfection. Plasmid DNA (500 ng) was added to a tube or a 96-well U-bottom plate. Separately, TransIT-293 reagent (Mirus; 1.4 L) was added to 50 μL Optimum I media (Life Technologies) and allowed to sit for 5 minutes at room temperature (RT). Then, 50 μL of this diluted transfection reagent was added to the DNA, mixed, and incubated at RT for 20 min. Finally, 7 μL of this solution was added to a well of cells in the 96-well plate. Four hours after transfection, medium containing transfection solution was replaced by medium with either TPP or fursultiamine as aptamer ligands.\n(§5) Firefly luciferase assay of cultured cells: Twenty-four hours after media change, plates were removed from the incubator, and equilibrated to RT for several minutes on a lab bench, then aspirated. […] Following a 5 min incubation at RT, luminescence was measured using a Tecan machine with 500 ms read time. The luciferase activity was expressed as mean arbitrary light units (ALU)±S.D., and fold induction was calculated as the quotient of the luciferase activity obtained from cells with TPP or analog compound treatment divided by the luciferase activity obtained from cells without TPP or analog compound treatment."}, "[2]": {"test_system": "riboswitch regulatable mEpo constructs", "test": "ELISA for mouse erythropoietin, riboswitch regulatable mEpo constructs in C2C12 cells", "type": "cell-based", "excerpt": "(§1) Riboswitch constructs: The alternative splicing riboswitch cassette containing aptamers N5-12G6 or N4-1C11 was inserted between nucleotide position 307 and 308 in the mouse erythropoietin cDNA sequence, generating constructs mEpo-12G6 and mEpo-1C11. Expression of the erythropoietin gene was driven by CASI promoter. The intron-exon-intron cassette without aptamer sequence was inserted at the same position in the cDNA of mEpo gene to create construct mEpo-Con1, serving as a control for constitutive target gene expression. N5-12G6 riboswitch cassette was inserted between nucleotide position 424 and 425 in the cDNA of human growth hormone (hGH) gene driven under CMV promoter.\n(§2) Enzyme-linked immunosorbent assay (ELISA) for mouse erythropoietin (mEpo): AML-12 cells or C2C12 cells were transfected as described in Example 1 with TransIT-X2 transfection reagent (Mirus Bio). Four hours after transfection, the transfected cells were treated with or without Comp. 004 at the indicated doses. The supernatants from the transfected cells were collected 24 hours after compound treatment and were subjected to ELISA for the detection of mEpo in the supernatant following the manufacturer's instruction (R&D)."}, "[3]": {"test_system": "AAV9.hPTH-12G6 hPTH expression", "test": "hPTH production and serum calcium in mice injected intramuscularly with AAV9.hPTH-12G6, oral Comp. 004", "type": "in vivo", "details": "oral 30, 100 or 300 mg/kg for 3 days", "protocol": "AAV2.9 viral particle production: The AAV9 particles used for the transduction of mice comprised a viral genome derived from AAV2 (ITR) and a capsid derived from AAV9. The hPTH-12G6 was cloned into AAV plasmid backbone with CASI promoter, and the AAV plasmid was packaged into AAV9 capsid, generating vector AAV9.hPTH-12G6 (Signagen)\nAnimal study: C57BL/6 mice were injected intramuscularly with AAV9.hPTH-12G6 at 2.5×10^11 viral genome (VG) per mouse of the AAV9 viral particle into both quadriceps. Compound 004 was formulated in 0.5% methylcellulose (MC): 0.25% Tween® 80 in deionized (DI) water for oral administration. 30 days after AAV vector delivery, mice were treated orally via oral gavage with 0 mg/kg, 30 mg/kg, 100 mg/kg or 300 mg/kg Comp. 004 for 3 days."}, "[4]": {"test_system": "hPTH-12G6 (N5-12G6 riboswitch in hPTH gene)", "test": "ELISA for human PTH, hPTH-12G6 construct in HEK 293 cells", "type": "cell-based", "details": "HEK 293, hPTH-12G6", "excerpt": "Riboswitch constructs: Alternative splicing riboswitch cassette containing aptamers N5-12G6 was inserted between nucleotide position 181 and 182 in human parathyroid hormone (hPTH) cDNA sequence, generating constructs hPTH-12G6. Expression of the erythropoietin gene was driven by CASI promoter.\nas §2, with “human PTH: HEK 293” for “mouse erythropoietin (mEpo): AML-12 cells or C2C12”, “TransIT-293” for “TransIT-X2”, “Compound” for “Comp.”, “48” for “24”, “human PTH” for “mEpo”, “(Abcam).” for “(R&D).”"}, "[5]": {"test_system": "hGH-12G6 (N5-12G6 riboswitch in hGH gene)", "test": "ELISA for human growth hormone, hGH-12G6 construct in HEK 293 cells", "type": "cell-based", "details": "HEK 293, hGH-12G6, 3.1 μM Comp. 004", "excerpt": "as §1\nas §2, with “ELISA” for “Enzyme-linked immunosorbent assay (ELISA)”, “human growth hormone (hGH): HEK 293” for “mouse erythropoietin (mEpo): AML-12 cells or C2C12”, “TransIT-293” for “TransIT-X2”, “Comp. 004” for “compound”, “hGH” for “mEpo”, “(R&D Systems).” for “(R&D).”"}, "[6]": {"test_system": "mEpo-1C11 (N4-1C11 riboswitch in mEpo gene)", "test": "ELISA for mouse erythropoietin, construct mEpo-1C11 in AML12 cells", "type": "cell-based", "details": "mEpo-1C11, 1.85 μM Comp. 004", "excerpt": "as §1, §2"}, "N4-1C11 riboswitch": {"test_system": "N4-1C11 riboswitch", "test": "Firefly luciferase assay, N4-1C11 riboswitch in HEK 293 cells", "type": "cell-based, human", "details": "N4-1C11, 0.1 μM Comp. 004", "description": "as §4, §5"}, "N5-12G6 riboswitch": {"test_system": "N5-12G6 riboswitch", "test": "Firefly luciferase assay, N5-12G6 riboswitch in HEK293 cells", "details": "N5-12G6, 0.1 μM Comp. 004"}, "[7]": {"test_system": "Alishewanella tabrizica thiC aptamer in TPPz riboswitch", "test": "Firefly luciferase assay, TPPz riboswitch construct in HEK 293 cells", "type": "cell-based, human", "details": "HEK 293, 50 μM Comp. 004", "protocol": "(§3) First, the E. coli thiM TPP aptamer, the aptamer that was used in Weeks' work in generating the Comp. 004, was tested in TPPm riboswitch construct (SEQ ID No. 87 as described in 62/994,135) for its response to Comp. 004 in inducing gene expression. To evaluate whether this novel TPP aptamer binder could bind a different TPP aptamer, TPP aptamer from Alishewanella tabrizica thiC gene (Microbiol Res. 2017 January; 195:71-80) was tested in TPPz riboswitch construct (SEQ ID No. 86 as described in 62/994,135)."}, "[8]": {"test_system": "hematocrit of anemic mice", "test": "Hematocrit in mouse model of chronic kidney disease (CKD)-associated anemia with AAV8.mEpo.12G6", "type": "in vivo", "details": "for hematocrit: 300 mg/kg for 15 days and 10 doses", "protocol": "Chronic kidney disease-associated anima: male C57Bl/6 mice were injected intramuscularly with 2.5×10^10 vg or 1.0×10^10 vg of AAV8.mEpo.12G6 per mouse. One week post AAV injection, mice were treated daily with 50 mg/kg adenine (Sigma) via oral gavage for total 28 treatment in 5 weeks. Hematocrit was measured after Adenine treatment and before small molecule inducer treatment and monitored every 7 to 10 days post daily small molecule inducer oral dosing."}, "[9]": {"test_system": "mEpo-12G6 (N5-12G6 riboswitch in mEpo gene)", "test": "ELISA for mouse erythropoietin, construct mEpo-12G6 in AML12 cells", "type": "cell-based", "details": "mEpo-12G6, 1.85 μM Comp. 004", "excerpt": "as §1, §2"}, "[10]": {"test_system": "E. coli thiM TPP aptamer in TPPm riboswitch", "test": "Firefly luciferase assay, TPPm riboswitch construct in HEK 293 cells", "type": "cell-based, human", "details": "HEK 293, 50 μM Comp. 004", "protocol": "as §3"}},
  "data": [
    {"smiles": "CC(=C(CCO)SSCC1CCCO1)N(C=O)Cc1cnc(C)nc1N", "note": "(stereo in doubt) [fursultiamine, reference compound]", "values": [
      {"measurement": "luciferase expression response", "setting": "12C6-1 riboswitch", "value": "induced luciferase gene expression in a dose-dependent manner"}
    ]},
    {"smiles": "CN(C)CCNCc1ccc2nccnc2c1", "note": "[compound 011]", "values": [
      {"measurement": "activation of 12C6-1 and derivative riboswitches in regulating Luciferase expression (FIG. 4d)", "setting": "12C6-1 riboswitch", "value": "bind 12C6-1 and activate derivative riboswitches"}
    ]},
    {"smiles": "Cc1ncc(C[n+]2csc(CCO[P@](=O)(O)OP(=O)(O)O)c2C)c(N)n1", "note": "[TPP, Thiamine Pyrophosphate, reference compound]", "values": [
      {"measurement": "luciferase expression response", "setting": "12C6-1 riboswitch", "value": "dose-dependent response"}
    ]},
    {"smiles": "c1cc(N2CCNCC2)c(NCc2ccc3nccnc3c2)cn1", "note": "[Comp. 004]", "values": [
      {"measurement": "serum vector-expressed mEpo", "setting": "[1]", "value": "elevated"},
      {"measurement": "fold increase in luciferase expression", "setting": "N5-12E5 riboswitch", "value": 8, "unit": "fold"},
      {"measurement": "mEpo expression", "setting": "[2]", "value": "induced upon treatment of Comp. 004 in a dose dependent manner"},
      {"measurement": "production of hPTH in mice", "setting": "[3]", "value": "induced dose-dependent production of hPTH"},
      {"measurement": "serum calcium concentration", "setting": "[3]", "value": "increase in the serum calcium concentration"},
      {"measurement": "hPTH expression", "setting": "[4]", "value": "dose dependent manner"},
      {"measurement": "fold of the hGH expression from cells without compound treatment", "setting": "[5]", "value": "approximately 243 fold"},
      {"measurement": "hGH expressed", "setting": "[5]", "value": 202, "unit": "ng/mL"},
      {"measurement": "fold induction of mEpo expression", "setting": "[6]", "value": "~71", "unit": "fold"},
      {"measurement": "fold increase in luciferase expression", "setting": "N4-1C11 riboswitch", "value": 16, "unit": "fold"},
      {"measurement": "fold increase in luciferase expression", "setting": "N5-12G6 riboswitch", "value": 36, "unit": "fold"},
      {"measurement": "fold increase in luciferase expression", "setting": "[7]", "value": 26, "unit": "fold"},
      {"measurement": "hematocrit", "setting": "[8]; AAV 1×10^10 vg per mouse", "value": "restored to normal level"},
      {"measurement": "hematocrit", "setting": "[8]; AAV 2.5×10^10 vg per mouse", "value": "exceeded the normal hematocrit level"},
      {"measurement": "hematocrit of anemic mice", "setting": "[8]; after 20 oral doses, biggest increase in the 100 mg/kg dose group", "value": "increased"},
      {"measurement": "fold induction of mEpo expression", "setting": "[9]", "value": "about 148 fold"},
      {"measurement": "increase in luciferase expression", "setting": "[10]", "value": 4.1},
      {"measurement": "fold increase in luciferase expression", "setting": "12C6-1 riboswitch; Luci-12C6-1, HEK 293, 50 uM Comp. 004", "value": 360, "unit": "fold"}
    ]},
    {"smiles": "C=CN(CCN(C)C)Cc1ccc2nccnc2c1", "note": "[compound 009]", "values": [
      {"measurement": "activation of 12C6-1 and derivative riboswitches in regulating Luciferase expression (FIG. 4d)", "setting": "12C6-1 riboswitch", "value": "bind 12C6-1 and activate derivative riboswitches"}
    ]},
    {"smiles": "Cl.c1cc(N2CCNCC2)c(CNCc2ccc3nccnc3c2)cn1", "note": "[compound 008]", "values": [
      {"measurement": "activation of 12C6-1 and derivative riboswitches in regulating Luciferase expression (FIG. 4d)", "setting": "12C6-1 riboswitch", "value": "bind 12C6-1 and activate derivative riboswitches"}
    ]}
  ]
}
